3 molecules from article doi:10.1101/2023.02.03.527073v1 (biorxiv, 2023) can be followed below.

Test [1] deals with T1, CgBdf1 BD1 (CgBD1) (Nakaseomyces glabratus, UniProt Q6FWV7).
T1 sequence (Q6FWV7 100-228): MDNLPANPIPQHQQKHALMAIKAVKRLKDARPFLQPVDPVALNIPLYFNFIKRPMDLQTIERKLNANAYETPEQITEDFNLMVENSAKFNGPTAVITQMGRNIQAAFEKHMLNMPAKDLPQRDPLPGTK
The test is described as follows: HTRF competition with biotinylated H4ac4 peptide. It is filed as binding.

Test [2] deals with T2, CgBdf1 BD2 (CgBD2) (Nakaseomyces glabratus, UniProt Q6FWV7).
T2 sequence (Q6FWV7 269-391): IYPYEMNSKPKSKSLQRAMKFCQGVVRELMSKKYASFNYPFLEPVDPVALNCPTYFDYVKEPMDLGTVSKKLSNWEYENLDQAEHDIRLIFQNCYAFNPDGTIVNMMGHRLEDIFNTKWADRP
The test is described as follows: HTRF competition with biotinylated H4ac4 peptide. It counts as binding.

For test [3], the target named is T3, human Brd4 BD2 (hBrd4 BD2) (Homo sapiens, UniProt O60885). The test can be described thus: HTRF competition with biotinylated H4ac4 peptide. It is filed as binding.
The target in test [4] is T4, human Brd4 BD1 (hBrd4 BD1) (Homo sapiens, UniProt O60885). The test is described as follows: HTRF competition with biotinylated H4ac4 peptide. It counts as binding.
Test [5] concerns the target T3, human Brd4 BD2 (hBrd4 BD2). The test is described as follows: biochemical.
Test [6] deals with T2, CgBdf1 BD2 (CgBD2). The test is described as follows: biochemical.
Test [7] deals with T4, human Brd4 BD1 (hBrd4 BD1). The test can be described thus: biochemical.
Test [8] has as its target T1, CgBdf1 BD1 (CgBD1). The test is described as follows: biochemical.

`Cc1ccc(-c2nnc(C)c(NCc3cccs3)n2)cc1` [compound 24, 24]: the IC50 was 2230 ± 260 nM at CgBdf1 BD1 (CgBD1) [1], greater than 20000 nM at CgBdf1 BD2 (CgBD2) [2], greater than 20000 nM in test [3] and greater than 20000 nM in test [4].
In the case of `CC(=O)N1CCc2[nH]c3ccc(C(=O)Nc4ccc(N5CCOCC5)cc4)cc3c2C1` [compound 29, 29], the half-maximal inhibitory concentration (IC50) on CgBdf1 BD1 (CgBD1) [1] amounted to 1810 ± 1140 nM; at CgBdf1 BD2 (CgBD2) [2], 2060 ± 230 nM; in test [5] it was 440 nM; at CgBdf1 BD2 (CgBD2) [6] it was 2300 nM; in test [7], 2900 nM; against CgBdf1 BD1 (CgBD1) [8] it was 1100 nM.
Turning to `Cn1nccc1C(=O)NCc1ccc(-c2nc(-c3cccs3)no2)s1` [compound 63, 63], the IC50 was 610 ± 100 nM at CgBdf1 BD1 (CgBD1) [1], greater than 20000 nM in test [7] and 25900 ± 7900 nM in test [4].
